# Experimental data published in US9034895B2, “Composition and methods for treating glioblastoma” (University of Washington Through its Center for …, priority 2010, dated 2015).
# Target: T1, GPR124 (Homo sapiens, UniProt Q96PE1)
# T1 construct: endogenous in cells; host or cells: T98g human astrocytoma cells
# T1 sequence (Q96PE1 34-1338): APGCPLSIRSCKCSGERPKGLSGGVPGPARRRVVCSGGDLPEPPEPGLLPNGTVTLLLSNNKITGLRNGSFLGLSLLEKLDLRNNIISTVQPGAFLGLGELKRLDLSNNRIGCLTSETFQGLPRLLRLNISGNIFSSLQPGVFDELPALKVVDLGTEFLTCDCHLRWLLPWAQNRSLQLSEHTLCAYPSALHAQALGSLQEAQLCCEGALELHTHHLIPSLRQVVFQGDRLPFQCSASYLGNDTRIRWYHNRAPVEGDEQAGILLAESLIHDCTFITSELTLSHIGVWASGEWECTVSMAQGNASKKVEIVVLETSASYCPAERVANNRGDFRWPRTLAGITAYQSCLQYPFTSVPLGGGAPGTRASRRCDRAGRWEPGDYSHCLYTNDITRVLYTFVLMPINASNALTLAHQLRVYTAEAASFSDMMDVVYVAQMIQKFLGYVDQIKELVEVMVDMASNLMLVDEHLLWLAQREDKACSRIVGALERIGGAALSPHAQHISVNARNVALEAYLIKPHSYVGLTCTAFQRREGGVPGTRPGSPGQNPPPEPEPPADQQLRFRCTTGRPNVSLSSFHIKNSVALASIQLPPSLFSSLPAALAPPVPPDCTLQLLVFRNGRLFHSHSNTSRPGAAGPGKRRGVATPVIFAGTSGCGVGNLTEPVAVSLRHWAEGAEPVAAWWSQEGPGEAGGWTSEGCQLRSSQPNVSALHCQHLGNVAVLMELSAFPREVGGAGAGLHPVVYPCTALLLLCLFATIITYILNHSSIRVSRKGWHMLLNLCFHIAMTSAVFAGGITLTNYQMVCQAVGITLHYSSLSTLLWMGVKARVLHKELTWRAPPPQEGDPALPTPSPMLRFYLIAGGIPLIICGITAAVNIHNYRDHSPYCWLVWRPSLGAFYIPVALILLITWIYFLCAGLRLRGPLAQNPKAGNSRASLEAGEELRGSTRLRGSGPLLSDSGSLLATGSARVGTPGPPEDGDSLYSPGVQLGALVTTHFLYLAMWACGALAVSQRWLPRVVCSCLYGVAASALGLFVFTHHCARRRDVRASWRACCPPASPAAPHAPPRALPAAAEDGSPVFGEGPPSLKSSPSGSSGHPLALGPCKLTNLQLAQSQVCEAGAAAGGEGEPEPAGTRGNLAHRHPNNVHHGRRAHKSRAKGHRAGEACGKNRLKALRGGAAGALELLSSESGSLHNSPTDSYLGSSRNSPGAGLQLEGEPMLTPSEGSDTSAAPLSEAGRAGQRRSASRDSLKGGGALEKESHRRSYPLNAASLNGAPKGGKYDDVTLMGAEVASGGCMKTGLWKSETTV
# Test: siRNA knock-down of GPCR candidates, JWH-451 toxicity in T98g cells
# Assay type: cell-based
# Settings: JWH-451 1 μM, siRNA targeting GPR124, viability after three days
# Description: To determine which of the gene candidate encodes for AAI receptors, an siRNA approach is used to knock down each candidate individually to determine which one prevents the toxic effect of JWH-451 and thus encodes for AAI receptors. The prediction is that knocking down AAI receptors prevents the cell death induced by JWH-451. T98g cells were treated with siRNA targeting each of the 39 GPCR gene candidates individually. The first experiment was designed to knock down each GPCR candidate using a mixture of 3 siRNAs thus maximize genetic targeting efficacy. Thus, cells were incubated with siRNA mixtures and then treated with JWH-451 (1 μM) and cell viability measured after three days. Only one mixture of siRNAs (that targeting GPR124) decreased the toxicity of JWH-451. […] Two of the three siRNAs knocked-down GPR124 expression by more than 80% over 4 days (FIG. 3b). […] The killing effect induced by JWH-451 is mediated by GPR124, a AAI receptor.
structure (smiles),measurement,value
"CCn1c(C)c(C(=O)c2ccc(C)c3ccccc23)c2ccccc21 [JWH-451, 1-Ethyl-2-methyl-3-(4-methyl-1-napthoyl)indole]",JWH-451-induced killing of T98g cells when GPR124 mRNA expression is reduced,reduced
